Assay results published in US20120283096A1, “AGENT FOR IMPROVING PLANT GROWTH, SEEDS, AND METHOD FOR IMPROVING PLANT GROWTH” (Incorporated Administrative Agency National Agricu lture …, priority 2010, published 2012).
Read-outs that look alike come from different tables or passages of the source.

Columns and labels:
paddy rice [1] = experiment: Seedling establishment of paddy seeds soaked in solutions of readily-soluble molybdenum substances (Example 2-2, FIGS. 8 and 13); type: in vivo
Procedure: The examination of the proportion of seedling establishment was carried out under the same conditions as the examination whose results are shown in FIG. 8, except for the molybdenum concentration and the duration of soaking.

decay of paddy seeds = experiment: Decay-inhibiting effect in tank farming without soil (Example 3); conditions: for Soaking: Inhibition of decay, Concentration of Molybdenum in Solution: paddy seeds left soaked two weeks in the solution at 30° C., no soil, water did not rot, no rotten smell; for Ten-minute soaking: Inhibition of decay, Concentration of Molybdenum in Solution: seeds soaked ten minutes in the solution, then two weeks in water at 30° C.; for Inhibition of decay, Amount of molybdenum or tungsten added to seed: seeds covered with substance, soaked two weeks in water at 30° C.
Procedure: (§1) The decay-inhibiting effect of molybdenum-containing substances in tank farming without soil was examined.
(§2) The possibility of growth and the inhibition of decay were determined in the same manner as above.

[2] = in water, powder, cited from earlier work
paddy seeds = experiment: Possibility of growth of paddy seeds in tank farming without soil (Example 3)
Procedure: as §1, §2

sulfide ion generation = experiment: Inhibition of sulfide ion generation, paddy seeds covered with slightly-soluble substances (Example 2-3, FIG. 9); conditions: approximately 0.1 mmol/g (per dry seeds) in terms of molybdenum or tungsten
Source text: The water on slightly germinated seeds was lightly wiped off, and immediately after that, the seeds were put with (lightly covered with) various amounts of the slightly-soluble substances shown in Table 1. […] The number of days for which sulfide ion generation was inhibited and the proportion of seedling establishment were examined.

sulfide ions = experiment: Inhibiting effect of molybdenum added to soil on sulfide ions (Example 1-3, FIG. 4); conditions: supernatant after shaking soil, 30° C., two weeks after seeding
Procedure: An inhibiting effect of a molybdenum-containing substance on sulfide ions was examined in relation to the degrees of generation of ferric sulfide in soil and the concentrations of molybdenum in soil solutions, and the results are shown in FIG. 4. The results shown in FIG. 4 were obtained from samples obtained in the same manner as in Example 1-2. Since methylene blue decolorizes in a reduced state, methylene blue weighing 0.1% of dry soil was added to each sample of soil so that a reduced state of the soil could be detected. The supernatant liquids obtained after shaking the samples of soil thus adjusted had molybdenum concentrations shown in FIG. 4.

paddy rice [3] = experiment: Seedling establishment of coated paddy seeds in submerged soil containers (Examples 4-1 to 4-4b, FIGS. 11, 14-19c); type: in vivo; conditions: dry seeds, 25 wt % calcium peroxide alone at 0.1 or less time the weight of dry seed, 30° C., FIG. 19c
Procedure: The germinated paddy seeds were soaked for one minute in a tenfold diluted solution of a commercially available laundry starch (manufactured by Rocket Soap Co., Ltd.; My Laundry Starch) containing approximately a little less than 10% by weight of polyvinyl alcohol, centrifuged at 1000 rpm for removal of the extra solution, and, immediately after that, lightly covered with different amounts of ammonium molybdophosphate, whereby seeds with different amounts of ammonium molybdophosphate were prepared.
(§3) It should also be noted that in each of FIGS. 14 through 15b, the horizontal axis represents the number of moles (mmol) of molybdenum or tungsten that adhered per gram of dry seed. In each of FIGS. 14 through 15b, the dots correspond to the numbers of moles of 0, 0.02, 0.05, 0.1, 0.2, 0.5, 1, and 2 mmol, starting from the left.
as §3, with “should” for “should also”, “16” for “14”, “18,” for “15b,”, “molybdenum” for “molybdenum or tungsten”
It should be noted that in FIG. 19a, the horizontal axis represents the number of moles (mmol) of molybdenum that adhered per gram of dry seed. In FIG. 19a, the dots correspond to the numbers of moles of 0, 0.02, 0.05, 0.1, 0.2, 0.5, 1, and 2 mmol, starting from the left.
The resulting seeds were allowed to spend time in a sufficiently wet condition so that the iron rusted, and then allowed to further spend overnight. […] Six containers were allotted for each condition, and the proportion of seedling establishment and the standard error were examined. It should be noted that in FIG. 19b, the horizontal axis represents the number of moles (mmol) of molybdenum that adhered per gram of dry seed. In FIG. 19b, the dots correspond to the numbers of moles of 0, 0.02, 0.05, 0.1, 0.2, 0.5, 1, and 2 mmol, starting from the left.
Six containers were allotted for each condition, and the proportion of seedling establishment and the standard error were examined. It should be noted that in FIG. 19c, the horizontal axis represents the actual weight ratios of 25 wt % calcium peroxide that adhered with respect to the weight of dry seed. In FIG. 19c, the dots correspond to the actual weight ratios of 25 wt % calcium peroxide of 0, 0.01, 0.02, 0.05, 0.1, 0.2, 0.5, and 1 time, starting from the left.

[4] = 3 M molybdenum solution, one-minute soaking, FIG. 13
[5] = seeds covered with substance, soaked two weeks in water at 30° C.
[6] = paddy seeds left soaked two weeks in the solution at 30° C., no soil, concentration at which sheath leaf elongation was observed
[7] = seeds soaked ten minutes in the solution, then two weeks in water at 30° C.

## 12-moblybdo(VI)phosphoric acid n-hydrate [Molybdophosphoric acid]
Paddy rice [1]; [4]
  proportion of seedling establishment: improvement in proportion of seedling establishment
Decay of paddy seeds
  Soaking: Inhibition of decay, Concentration of Molybdenum in Solution: <0.02 M
  Ten-minute soaking: Inhibition of decay, Concentration of Molybdenum in Solution: 0.1 M

## [H+].[H+].[NH4+].[NH4+].[NH4+].[NH4+].[NH4+].[NH4+].[NH4+].[NH4+].[NH4+].[NH4+].[O]=[W](=[O])([O-])[O-].[O]=[W](=[O])([O-])[O-].[O]=[W](=[O])([O-])[O-].[O]=[W](=[O])([O-])[O-].[O]=[W](=[O])([O-])[O-].[O]=[W](=[O])([O-])[O-].[O]=[W](=[O])=[O].[O]=[W](=[O])=[O].[O]=[W](=[O])=[O].[O]=[W](=[O])=[O].[O]=[W](=[O])=[O].[O]=[W](=[O])=[O] [Ammonium paratungstate, Ammonium tungstate parapentahydrate]
[2]
  Water solubility: Slightly soluble (has a percentage of solubility of 10% by weight or lower with respect to water)
Decay of paddy seeds
  Inhibition of decay, Amount of molybdenum or tungsten added to seed: <0.3 mmol/g
Paddy seeds; [5]
  Possibility of growth, Amount of molybdenum or tungsten added to seed: 0.3 mmol/g

## [Ca+2].[O]=[Mo](=[O])([O-])[O-] [Calcium molybdate]
Decay of paddy seeds
  Inhibition of decay, Amount of molybdenum or tungsten added to seed: 0.3 mmol/g
Paddy seeds; [5]
  Possibility of growth, Amount of molybdenum or tungsten added to seed: 1 mmol/g

## [Mg+2].[O]=[Mo](=[O])([O-])[O-] [Magnesium molybdate]
[2]
  Water solubility: Slightly soluble (has a percentage of solubility of 10% by weight or lower with respect to water)
[2]; listed as magnesium molybdate
  Water solubility: slightly soluble

## [O]=[Mo](=[O])([OH])[OH] [Molybdic acid]
[2]
  Water solubility: Slightly soluble (has a percentage of solubility of 10% by weight or lower with respect to water)
[2]; listed as molybdic acid
  Water solubility: slightly soluble
Sulfide ion generation
  number of days for which sulfide ion generation was inhibited: fourteen
Decay of paddy seeds
  Inhibition of decay, Amount of molybdenum or tungsten added to seed: <0.02 mmol/g
Paddy seeds; in vivo
  Possibility of growth, Amount of molybdenum or tungsten added to seed: > 2 mmol/g

## [K+].[K+].[O]=[Mo](=[O])([O-])[O-] [Potassium molybdate]
Sulfide ions
  molybdenum concentration at which sulfide ions were effectively inhibited: ≥ 0.2 mM
  molybdenum concentration up to which black circles were observed in the soil: ≤ 0.06 mM
[2]
  Water solubility: Readily soluble
[2]; listed as potassium molybdate
  Water solubility: readily soluble
Decay of paddy seeds
  Soaking: Inhibition of decay, Concentration of Molybdenum in Solution: 0.3 M
  Ten-minute soaking: Inhibition of decay, Concentration of Molybdenum in Solution: 0.5 M
Paddy seeds; [6]
  Soaking: Possibility of growth, Concentration of Molybdenum in Solution: 0.02 M
Paddy seeds; [7]
  Ten-minute soaking: Possibility of growth, Concentration of Molybdenum in Solution: 1< M

## O.O.[Na+].[Na+].[O]=[Mo](=[O])([O-])[O-] [Sodium molybdate, Sodium molybdate dihydrate]
[2]; dihydrate
  Water solubility: Readily soluble
[2]; listed as sodium molybdate, dihydrate
  Water solubility: readily soluble
Decay of paddy seeds
  Soaking: Inhibition of decay, Concentration of Molybdenum in Solution: 0.1 M
  Ten-minute soaking: Inhibition of decay, Concentration of Molybdenum in Solution: 0.3 M
Paddy seeds; [6]
  Soaking: Possibility of growth, Concentration of Molybdenum in Solution: 0.03 M
Paddy seeds; [7]
  Ten-minute soaking: Possibility of growth, Concentration of Molybdenum in Solution: 1< M

## [O]=[W](=[O])=[O] [Tungsten oxide, Tungsten oxide (VI)]
[2]
  Water solubility: Slightly soluble (has a percentage of solubility of 10% by weight or lower with respect to water)
Sulfide ion generation
  number of days for which sulfide ion generation was inhibited: fourteen
Decay of paddy seeds
  Inhibition of decay, Amount of molybdenum or tungsten added to seed: 1< mmol g^−1
Paddy seeds; in vivo
  Possibility of growth, Amount of molybdenum or tungsten added to seed: > 1 mmol/g

## [O]=[W](=[O])([OH])[OH] [Tungstic acid]
[2]
  Water solubility: Slightly soluble (has a percentage of solubility of 10% by weight or lower with respect to water)
Decay of paddy seeds
  Inhibition of decay, Amount of molybdenum or tungsten added to seed: 1< mmol g^−1
Paddy seeds; in vivo
  Possibility of growth, Amount of molybdenum or tungsten added to seed: > 1 mmol/g

## [Ca+2].[O-][O-] [calcium peroxide, reference compound]
Paddy rice [3]
  proportion of seedling establishment: ≤ 20%

## Ammonium molybdate tetrahydrate
Decay of paddy seeds
  Soaking: Inhibition of decay, Concentration of Molybdenum in Solution: <0.02 M
  Ten-minute soaking: Inhibition of decay, Concentration of Molybdenum in Solution: 0.1 M

## Ammonium phosphotungstate trihydrate [Ammonium tungstophosphate]
Decay of paddy seeds
  Inhibition of decay, Amount of molybdenum or tungsten added to seed: 1< mmol g^−1
Paddy seeds; in vivo
  Possibility of growth, Amount of molybdenum or tungsten added to seed: > 1 mmol/g

## Potassium phosphomolybdate [Potassium molybdophosphate]
[2]
  Water solubility: Slightly soluble (has a percentage of solubility of 10% by weight or lower with respect to water)
[2]; listed as potassium molybdophosphate
  Water solubility: slightly soluble

## Silicomolybdic acid n-hydrate [Molybdosilicic acid]
[2]
  Water solubility: Readily soluble
[2]; listed as molybdosilicic acid
  Water solubility: readily soluble
Paddy rice [1]; [4]
  proportion of seedling establishment: improvement in proportion of seedling establishment

## Sodium phosphomolybdate n-hydrate [Sodium molybdophosphate]
[2]
  Water solubility: Readily soluble
[2]; listed as sodium molybdophosphate
  Water solubility: readily soluble
Paddy rice [1]; ten-minute soaking, FIG. 8
  molybdenum concentration of the soaking solution at which proportion of seedling establishment improved: approximately 1 M
Paddy rice [1]; ten-minute soaking, soaking solution 2 M molybdenum
  proportion of seedling establishment: decrease in proportion of seedling establishment
Decay of paddy seeds
  Soaking: Inhibition of decay, Concentration of Molybdenum in Solution: <0.02 M
  Ten-minute soaking: Inhibition of decay, Concentration of Molybdenum in Solution: 0.1 M
Paddy seeds; in vivo
  Soaking: Possibility of growth, Concentration of Molybdenum in Solution: <0.02 M
  Ten-minute soaking: Possibility of growth, Concentration of Molybdenum in Solution: > 1 M
